From PubChem BioAssay (NCI)
Where “and” joins values, the source holds several entries; their conditions need not be identical. Equal entries are not always repeated.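 Cells were grown in 96-well plates and exposed to each compound for 48 hours at five concentrations; endpoints were interpolated linearly between bracketing concentrations, or set to the highest concentration if not reached. GI50: concentration for 50% inhibition of growth. TGI is the concentration that stops growth completely.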

Tests used:
Test in all cases: inhibition of tumour cell growth, NCI panel, 48 h
DMS 273 small cell lung = test system: DMS 273 small cell lung
DMS 114 small cell lung = test system: DMS 114 small cell lung
KM20L2 colon = test system: KM20L2 colon
M19-MEL melanoma = test system: M19-MEL melanoma
HOP-18 NSCLC = test system: HOP-18 NSCLC
SN12K1 renal = test system: SN12K1 renal
MDA-N = test system: MDA-N
SNB-78 CNS = test system: SNB-78 CNS
LXFL 529 NSCLC = test system: LXFL 529 NSCLC
RXF-631 renal = test system: RXF-631 renal

For `NC(=S)N/N=C/c1ccc(O)cn1`, the GI50 (DMS 273 small cell lung) was 8.83 µM and 5.35 µM, the TGI (DMS 273 small cell lung) was 31.1 µM and 37 µM and 16.7 µM and the GI50 (DMS 114 small cell lung) was 3.78 µM and 1.04 µM and 2.04 µM. For the same compound, the GI50 (KM20L2 colon) was 31.7 µM and 19.7 µM and 10.6 µM, the TGI (KM20L2 colon) was greater than 1500 µM and the GI50 (M19-MEL melanoma) was 15.4 µM and 9.44 µM. The GI50 (HOP-18 NSCLC) was 21 µM, the TGI (HOP-18 NSCLC) was 134 µM and 974 µM and the TGI (SN12K1 renal) was greater than 1500 µM. For the same compound, the TGI (MDA-N) was greater than 1180 µM.
`CC(=O)OCc1ccc(O)c(C=O)c1` gave a TGI (MDA-N) greater than 100 µM.
With `COC(=O)[C@@]1(O)CC(C)C=C1C=O` (stereo not given in full) the TGI (DMS 273 small cell lung) was 34.6 µM, the TGI (SNB-78 CNS) was greater than 100 µM and the TGI (DMS 114 small cell lung) was 89.7 µM. It also gave a TGI (LXFL 529 NSCLC) greater than 100 µM, a TGI (KM20L2 colon) greater than 100 µM and a TGI (M19-MEL melanoma) greater than 100 µM. It also gave a TGI (HOP-18 NSCLC) greater than 100 µM.
With `N#C/C(=C\Nc1ccccn1)C(=O)c1ccco1` the TGI (MDA-N) was greater than 100 µM.
`CCCCCCCCC(O)C#CC(N)=O` (stereo not given) was tested, and the TGI (DMS 273 small cell lung) was 20.3 µM, the TGI (SNB-78 CNS) was 57.5 µM and the TGI (DMS 114 small cell lung) was 17.9 µM. The TGI (LXFL 529 NSCLC) was 23.3 µM, the TGI (KM20L2 colon) was 35.1 µM and the TGI (RXF-631 renal) was 29.8 µM. It also gave a TGI (M19-MEL melanoma) of 24.4 µM and a TGI (HOP-18 NSCLC) of 26 µM.
Compound `Fc1cccc(CSc2ncnc3c2ncn3C2CCCS2)c1` (stereo not given) has a TGI (MDA-N) of 56.8 µM.
`COc1cc(C=O)c(-c2cc3c(cc2C2(C)OCCS2)OCO3)c(OC)c1OC` (stereo not given) was tested, and the TGI (DMS 273 small cell lung) was 36.8 µM, the TGI (SNB-78 CNS) was greater than 239 µM and the TGI (DMS 114 small cell lung) was 71.8 µM. The TGI (LXFL 529 NSCLC) was 54 µM and the TGI (KM20L2 colon) was 9.17 µM.
In the case of `CC(=O)OC1CC[C@@]2(C)C(CC[C@]3(C)C2CC=C2[C@@H]4CC(C)(C)CCC4(C)CCC23C)[C@@]1(C)C(=O)O` (stereo not given in full), the TGI (DMS 273 small cell lung) is reported as 55.5 µM, the TGI (SNB-78 CNS) is reported as 48.8 µM and the TGI (DMS 114 small cell lung) is reported as 40.2 µM. The TGI (LXFL 529 NSCLC) was 32.9 µM, the TGI (KM20L2 colon) was 36.7 µM and the TGI (RXF-631 renal) was 44.7 µM. The TGI (M19-MEL melanoma) was 54 µM, the TGI (HOP-18 NSCLC) was 43.7 µM and the TGI (MDA-N) was 64.8 µM.
Work on `O=C(Nc1ccc2[nH]c(C(=O)N3CC(CCl)c4c3cc([N+](=O)[O-])c3ccccc43)cc2c1)c1cc2ccccc2o1` (stereo not given) yielded a GI50 (MDA-N) greater than 1100 µM and a TGI (MDA-N) greater than 1100 µM.
Compound `COc1cc([C@H]2c3cc4c(cc3[C@H](NCc3ccc([N+](=O)[O-])cc3)C3COC(=O)[C@H]32)OCO4)cc(OC)c1O` (stereo not given in full) has a TGI (DMS 273 small cell lung) greater than 100 µM, a TGI (SNB-78 CNS) greater than 100 µM and a TGI (DMS 114 small cell lung) greater than 25.3 µM. For the same compound, the TGI (LXFL 529 NSCLC) was greater than 76 µM, the TGI (KM20L2 colon) was 14.4 µM and the TGI (M19-MEL melanoma) was greater than 100 µM.
`Clc1cccc(N2CCN(CCN3CCc4c([nH]c5ccccc45)C3c3cccnc3)CC2)c1` (stereo not given) showed a TGI (DMS 273 small cell lung) greater than 100 µM, a TGI (SNB-78 CNS) greater than 100 µM and a TGI (DMS 114 small cell lung) greater than 100 µM. It also gave a TGI (LXFL 529 NSCLC) greater than 100 µM, a TGI (KM20L2 colon) of 77.8 µM and a TGI (M19-MEL melanoma) greater than 100 µM. It also gave a TGI (HOP-18 NSCLC) greater than 100 µM and a TGI (MDA-N) greater than 100 µM.
`O=C(NC12CC3CC(CC(C3)C1)C2)C(=O)c1c[nH]c2ccc([N+](=O)[O-])cc12` gave a TGI (DMS 273 small cell lung) of 45 µM, a TGI (DMS 114 small cell lung) greater than 100 µM and a TGI (LXFL 529 NSCLC) greater than 100 µM. It also gave a TGI (KM20L2 colon) greater than 100 µM, a TGI (M19-MEL melanoma) greater than 100 µM and a TGI (HOP-18 NSCLC) greater than 90.9 µM.
`CCCCN=C(NC#N)N(Cc1ccccc1)Cc1ccccc1` showed a TGI (DMS 273 small cell lung) of 37.1 µM, a TGI (SNB-78 CNS) greater than 100 µM and a TGI (LXFL 529 NSCLC) of 32.8 µM. The TGI (KM20L2 colon) was 52.4 µM, the TGI (M19-MEL melanoma) was 35.8 µM and the TGI (HOP-18 NSCLC) was greater than 100 µM.
With `CCOC(=O)NC1=C(N2CC2)C(=O)C(NC(=O)OCC)=C(N2CC2)C1=O` the GI50 (DMS 273 small cell lung) was 1.01 µM, the TGI (DMS 273 small cell lung) was 20.5 µM and 41.4 µM and the GI50 (SNB-78 CNS) was 9.36 µM. The TGI (SNB-78 CNS) was 24.2 µM and 28.5 µM, the GI50 (DMS 114 small cell lung) was 3.49 µM and the TGI (DMS 114 small cell lung) was 7.85 µM and 7.33 µM. The GI50 (LXFL 529 NSCLC) was 4.34 µM, the TGI (LXFL 529 NSCLC) was 15 µM and 9.51 µM and the TGI (KM20L2 colon) was 31.6 µM and 45.3 µM. For the same compound, the GI50 (RXF-631 renal) was 6.73 µM and 14.4 µM, the TGI (RXF-631 renal) was 30.3 µM and 54.6 µM and the TGI (M19-MEL melanoma) was 19.2 µM and 12.5 µM. For the same compound, the GI50 (HOP-18 NSCLC) was 8.57 µM, the TGI (HOP-18 NSCLC) was 24.4 µM and 49.9 µM and the TGI (SN12K1 renal) was 15.7 µM. For the same compound, the TGI (MDA-N) was 5.41 µM.
`Nc1nc(NC2C=C(CO)C(O)C2O)c([N+](=O)[O-])c(=O)[nH]1` (stereo not given) was tested, and the TGI (DMS 273 small cell lung) was greater than 100 µM, the TGI (SNB-78 CNS) was greater than 100 µM and the TGI (DMS 114 small cell lung) was greater than 100 µM. For the same compound, the TGI (LXFL 529 NSCLC) was greater than 100 µM, the TGI (KM20L2 colon) was greater than 100 µM and the TGI (M19-MEL melanoma) was greater than 100 µM. For the same compound, the TGI (HOP-18 NSCLC) was greater than 100 µM.
`O=c1cc(-c2ccccc2)[nH]c2c(Cl)cccc12` was tested, and the TGI (DMS 273 small cell lung) was greater than 100 µM, the TGI (DMS 114 small cell lung) was greater than 100 µM and the TGI (LXFL 529 NSCLC) was greater than 100 µM. For the same compound, the TGI (KM20L2 colon) was 36 µM, the TGI (RXF-631 renal) was greater than 100 µM and the TGI (M19-MEL melanoma) was greater than 100 µM.
`CCC(=O)C(C)C(=O)C(=O)C(=O)OC` (stereo not given) gave a TGI (DMS 273 small cell lung) greater than 100 µM, a TGI (SNB-78 CNS) greater than 100 µM and a TGI (DMS 114 small cell lung) greater than 100 µM. It also gave a TGI (LXFL 529 NSCLC) greater than 100 µM, a TGI (KM20L2 colon) greater than 100 µM and a TGI (RXF-631 renal) greater than 100 µM. For the same compound, the TGI (M19-MEL melanoma) was greater than 100 µM and the TGI (HOP-18 NSCLC) was greater than 100 µM.
Compound `CC(C)(O)[C@@H]1CC[C@@]2(C)CCC[C@H](O)[C@H]2C1` has a TGI (DMS 273 small cell lung) greater than 100 µM, a TGI (DMS 114 small cell lung) greater than 100 µM and a TGI (LXFL 529 NSCLC) greater than 100 µM. For the same compound, the TGI (KM20L2 colon) was greater than 100 µM, the TGI (RXF-631 renal) was greater than 100 µM and the TGI (M19-MEL melanoma) was greater than 100 µM. For the same compound, the TGI (HOP-18 NSCLC) was greater than 100 µM.
In the case of `COc1ccc(OC)c(NCC#N)c1`, the TGI (DMS 273 small cell lung) is reported as greater than 100 µM, the TGI (DMS 114 small cell lung) is reported as greater than 100 µM and the TGI (KM20L2 colon) is reported as greater than 100 µM. For the same compound, the TGI (RXF-631 renal) was greater than 100 µM, the TGI (M19-MEL melanoma) was greater than 100 µM and the TGI (HOP-18 NSCLC) was greater than 100 µM.
For `CSc1nc(SC)c2c(C(N)=S)[nH]nc2n1`, the TGI (DMS 273 small cell lung) was 98.3 µM, the TGI (SNB-78 CNS) was 85.8 µM and the TGI (DMS 114 small cell lung) was 83 µM. It also gave a TGI (LXFL 529 NSCLC) greater than 100 µM, a TGI (KM20L2 colon) of 85 µM and a TGI (RXF-631 renal) of 93.7 µM. The TGI (M19-MEL melanoma) was 91.7 µM.
For `CCn1c2ccc(C(=O)CCCN(C)C)cc2c2cc(C(=O)CCCN(C)C)ccc21`, the TGI (MDA-N) was 6.8 µM.
`Cc1cc(Oc2cnc(=O)[nH]c2)cs1` was tested, and the TGI (MDA-N) was greater than 100 µM.
For `COc1ccc2nc(NCN3C(=O)c4ccccc4C3=O)sc2c1`, the TGI (MDA-N) was greater than 100 µM.
